Measurements reported in US8993606B2, “Oral formulations for treating metal overload” (FerroKin BioSciences, Inc., priority 2011, dated 2015).
Like-named read-outs stand apart in the source and are kept apart here.

What was measured:
[1] = Relative humidity stress (deliquescence, hygroscopicity); type: physicochemical
[2] = Example 8: single-dose study in healthy human subjects 3-16 mg/kg (PK); type: in vivo; settings: for half-life / AUC(0-t) / AUC(0-inf) / Cmax / Tmax: male, human, plasma; for AUC(0-t) / Cmax / Tmax: mean of 3 subjects
Excerpt: Example 8 was a double-blind, placebo-controlled single dose-escalating study in healthy subjects. Men between the ages of 18-45 years qualified to participate if they were able to voluntarily give consent and had no clinically significant abnormal findings at the screening evaluation. Specifically, subjects had blood pressure in the normal range, ECG and clinical laboratory values within normal limits, tested negative for drugs of abuse and had not recently donated blood. Subjects were also HIV, Hepatitis B, and Hepatitis C negative and agreed to use an approved method of contraception during the study.
The objectives of this study were to assess the safety, tolerability, and pharmacokinetics of ascending single doses of Compound 1 compared to placebo. Additionally, dose proportionality and pharmacodynamics of Compound 1 were assessed. Four doses of Compound 1 (3, 6, 10, and 16 mg/kg), in capsule form, were evaluated in this study. Following screening, subjects in a given cohort were randomly assigned to receive either Compound 1 or placebo. In the first cohort, 3 subjects received […] and 2 received placebo; in each of the subsequent remaining 3 cohorts, 3 subjects received the next higher dose of Compound 1 and 1 received placebo. Subjects were dosed and then confined to the clinical research unit for 24 hours to conduct safety and pharmacokinetic assessments. Subjects were released from the clinic on Day 2 and returned daily for follow-up visits for 5 days post-dosing.
All 12 subjects who received a dose of Compound 1 were included in the analysis of pharmacokinetic parameters. All 17 subjects enrolled in the study were included in the analysis of pharmacodynamics.
Blood samples for determination of total (free and iron bound complex) plasma Compound 1 concentrations were collected on Day 1 at pre-dose (within 60 minutes prior to dose administration) and then at 0.25, 0.5, 0.75, 1, 1.5, 2, 2.5, 3, 3.5, 4, 8, 12 hours post-dose; on Day 2 at 24 and 36 hours post-dose; on Day 3 at 48 hours post-dose, on Day 4 at 72 hours post-dose; and on Day 5 at 96 hours post-dose.
Total urine collection for pharmacokinetic and pharmacodynamic assessment was performed at pre-dose and then for intervals 0-4, 4-8, 8-12, 12-24 hours post-dose. Collection of total urine for 24 hours post-dose for pharmacokinetic analysis was complete for all subjects who received a dose of Compound 1. It was noted, however, that Subject R105 (placebo) voided into the toilet once (at 3 minutes post-dose) during the 0-4 hour post-dose urine collection interval.

[3] = tested on: adult subjects with documented transfusional iron overload; assay: Safety: ongoing randomized open-label study, 16 or 32 mg/kg/day, transfusional iron overload; type: in vivo, human
Method: This study is an ongoing multicenter, randomized, open-label study of adult subjects with documented transfusional iron overload in need of chelation therapy. Subjects received investigational product for 24 weeks with an extension of 72 weeks for the evaluation of long-term safety and efficacy. Subjects were stratified according to transfusional iron intake (transfusion burden) then randomized to receive Compound 1 at 16 or 32 mg/kg/day. The investigational product was administered orally once daily for 24 weeks. At the conclusion of the 24-week dosing period, qualified subjects were allowed to continue receiving Compound 1 for an additional 72 weeks. Dose adjustments from 24 weeks onward are permitted if clinically indicated. Fifty-one subjects enrolled and completed the first 24 weeks of the study; 49 subjects entered the 72-week extension.

[4] = tested on: pediatric subjects (aged 6-18 years) with documented transfusional iron overload; assay: Safety: pediatric Phase 2 study; type: in vivo, human
Excerpt: A pediatric study is an ongoing Phase 2 multicenter, randomized, open-label study of pediatric subjects (aged 6-18 years) with documented transfusional iron overload in need of chelation therapy. 6 subjects (aged 12-<18 years) of a planned 30 subjects had been enrolled and administered investigational product. These subjects received a single dose for pharmacokinetic analysis with the option to continue in the 48-week study. […] Dosing was temporarily discontinued for 2 subjects; 1 subject for moderate decrease in neutrophil count, which was considered possibly related, and 1 for a mild upper respiratory tract infection that was considered not related. Treatment-emergent AEs were reported for 5 of the 6 subjects. Treatment emergent AEs considered possibly related to the investigational product include arthralgia (1), decreased neutrophil count (1), neutropenia (1), and headache (1).

[5] = single oral dose 10 mg/kg, mean
[6] = single oral dose 16 mg/kg, mean

COCCOCCOCCOc1cccc(C2=N[C@@](C)(C(=O)O)CS2)c1O [Compound 1, (S)-4,5-Dihydro-2-[2-hydroxy-3-(3,6,9-trioxadecyloxy)phenyl]-4-methyl-4-thiazolecarboxylate magnesium hydroxide]
hygroscopicity [1]: non-hygroscopic | XRPD pattern after RH exposure ([1]; 75% RH for 8 days): remained unchanged | deliquescence ([1]; exposed to 75% RH for 8 days): did not deliquesce | dose dependence of mean Cmax and AUC ([2]; 3-16 mg/kg): linear across the dose range | total fraction of administered drug excreted in urine over 24 hour, range ([2]; across all 4 dose levels): 19-83% | total fraction of administered drug excreted in urine over 24 hour, average ([2]; all 4 dose levels, standard deviation 18%): 59% | half-life ([2]; oral, 11 of 12 subjects, 3-16 mg/kg, read-out: median t1/2 (converted)): 7.32 h | half-life ([2]; oral, 11 of 12 subjects, 3-16 mg/kg, read-out: t1/2, range): 3.77 to 35.2 h | half-life ([2]; oral, 11 of 12 subjects, 3-16 mg/kg, standard deviation 10.1, read-out: mean t1/2 (converted)): 12.8 h | AUC(0-t) ([2]; po, 3 mg/kg, single oral dose 3 mg/kg, read-out: AUC0-24): 12100 ng·h/mL | AUC(0-t) ([2]; po, 3 mg/kg, single oral dose 3 mg/kg, read-out: AUC0-t): 12100 ng·h/mL | half-life ([2]; po, 3 mg/kg, single oral dose 3 mg/kg, mean, read-out: t1/2 (converted)): 4.4 h | AUC(0-t) ([2]; po, 6 mg/kg, single oral dose 6 mg/kg, read-out: AUC0-24): 24700 ng·h/mL | AUC(0-t) ([2]; po, 6 mg/kg, single oral dose 6 mg/kg, read-out: AUC0-t): 25300 ng·h/mL | half-life ([2]; po, 6 mg/kg, single oral dose 6 mg/kg, mean, read-out: t1/2 (converted)): 15.4 h | AUC(0-t) ([2]; po, 10 mg/kg, single oral dose 10 mg/kg, read-out: AUC0-24): 42700 ng·h/mL | AUC(0-t) ([2]; po, 10 mg/kg, single oral dose 10 mg/kg, read-out: AUC0-t): 43400 ng·h/mL | half-life ([2]; po, 10 mg/kg, single oral dose 10 mg/kg, mean, read-out: t1/2 (converted)): 16.1 h | AUC(0-t) ([2]; po, 16 mg/kg, single oral dose 16 mg/kg, read-out: AUC0-24): 74600 ng·h/mL | AUC(0-t) ([2]; po, 16 mg/kg, single oral dose 16 mg/kg, read-out: AUC0-t): 75400 ng·h/mL | half-life ([2]; po, 16 mg/kg, single oral dose 16 mg/kg, mean, read-out: t1/2 (converted)): 16.1 h | AUC(0-inf) ([2]; single oral dose 3 mg/kg, mean): 12200 ng·h/mL | Cmax ([2]; single oral dose 3 mg/kg): 5410 ng/mL | Tmax ([2]; single oral dose 3 mg/kg): 1.33 h | AUC(0-inf) ([2]; single oral dose 6 mg/kg, mean): 26600 ng·h/mL | Cmax ([2]; single oral dose 6 mg/kg): 12200 ng/mL | Tmax ([2]; single oral dose 6 mg/kg): 0.92 h | AUC(0-inf) [2, 5]: 43600 ng·h/mL | Cmax ([2]; single oral dose 10 mg/kg): 16600 ng/mL | Tmax ([2]; single oral dose 10 mg/kg): 1.17 h | AUC(0-inf) [2, 6]: 75600 ng·h/mL | Cmax ([2]; single oral dose 16 mg/kg): 34800 ng/mL | Tmax ([2]; single oral dose 16 mg/kg): 1 h | kel ([2]; single oral dose 3 mg/kg, mean): 0.1595 h⁻¹ | kel ([2]; single oral dose 6 mg/kg, mean): 0.0469 h⁻¹ | kel [2, 5]: 0.0562 h⁻¹ | kel [2, 6]: 0.0779 h⁻¹ | TEAE headache ([3]; 5 subjects): 9.8% | TEAE increased transaminases ([3]; 8 subjects): 15.7% | Treatment-related gastrointestinal TEAEs ([3]; 17 subjects): 33.3% | subjects with at least 1 related TEAE ([3]; 31/51 subjects): 61% | Elevations in transaminases ([3]; 72 week treatment period): not significant | Mean serum creatinine ([3]; 72 week treatment period, remained in the normal range): did not change from baseline | TEAE diarrhea ([3]; N=3): 5.9% | TEAE flatulence ([3]; N=6): 11.8% | Any TEAE ([3]; Total (N = 51)): 49 (96.1%) N (%) | Creatinine increase >33% and creatinine <=ULN at 2 consecutive post-baseline visits ([3]; Total (N = 51)): 2 (3.9) N (%) | Creatinine increase >33% and creatinine >ULN at 2 consecutive post-baseline visits ([3]; Total (N = 51)): 0 N (%) | Creatinine increase and creatinine >ULN at 2 consecutive post-baseline visits ([3]; Total (N = 51)): 1 (2.0) N (%) | Serious TEAE ([3]; Total (N = 51)): 5 (9.8%) N (%) | TEAE Related to Investigational Product ([3]; Total (N = 51)): 31 (60.8%) N (%) | TEAE Requiring Discontinuation of Study Drug ([3]; Total (N = 51)): 14 (27.5%) N (%) | serum creatinine levels ([3]; as of Week 48): no trends | tolerability ([3]; doses tested (8-50 mg/kg/day)): generally well tolerated | SAEs ([3]; in four subjects, none judged related to treatment): 10 SAEs | severity of all related TEAEs ([3]; in vivo): mild to moderate | possibly related TEAE arthralgia ([4]; 6 subjects): 1 | possibly related TEAE decreased neutrophil count ([4]; 6 subjects): 1 | possibly related TEAE headache ([4]; 6 subjects): 1 | possibly related TEAE neutropenia ([4]; 6 subjects): 1 | SAEs ([4]; 6 subjects aged 12-<18 years): No SAEs have been reported | subjects with treatment-emergent AEs ([4]; 6 subjects aged 12-<18 years): 5 of the 6
